Laboratory results as given in patent US11492594B2, “Method for producing engineered heart muscle (EHM)” (GEORG-AUGUST-UNIVERSITÄT GÖTTINGEN STIFTUNG ÖFFENTLICHEN …, priority 2013, dated 2022).

How the values were obtained:
[1] = tested on: hEHM (human engineered heart muscle); assay: Spontaneous contraction frequency of hEHM by light microscopy; assay type: cell-based; settings: n=6
Description: (§1) The inventors analyzed force of contraction and twitch kinetics (contraction time: time from 50% to maximal contraction; relaxation time: time from maximal contraction to 50% relaxation) under isometric conditions as described before (Zimmermann et al. Circ Res 90: 223-230 (2002), incorporated herein by reference). Contraction frequency was assessed by light microcopy (unstimulated spontaneous contractions) immediately after removing EHMs from the incubator.

[2] = tested on: hEHM (human engineered heart muscle); assay: Isometric force of contraction and twitch kinetics of hEHM; assay type: cell-based
Description: as §1

[3] = tested on: hEHM (human engineered heart muscle); assay: hEHM formation and contractile force with varied matrix, basal medium and supplements; assay type: cell-based; settings: for force-generation of hEHM: 10 ng/ml added to serum-free medium, hES2; for hEHM formation and function by matrix component: contractile force at 2 mmol/L extracellular calcium
Description: The inventors constructed hEHMs using a modified EHM-engineering protocol (Zimmermann et al. Circ Res 90: 223-230 (2002), incorporated herein by reference). Briefly, EHMs (reconstitution volume: 450 μl) were prepared by pipetting a mixture containing freshly dispersed ESC-derivatives (1×10^4-15×10^6 cells in Iscove-Medium with 20% fetal calf serum, 1% non-essential amino acids, 2 mmol/l glutamine, 100 μmol/l β-mercaptoethanol, 100 U/ml penicillin, and […]), pH-neutralized collagen type I from rat tails (0.4 mg/EHM), Matrigel™ (10% v/v; Becton Dickenson or tebu), and concentrated serum-containing culture medium (2× DMEM, 20% horse serum, 4% chick embryo extract, 200 U/ml penicillin, and […] streptomycin) in circular molds (inner/outer diameter: 2/4 mm; height: 5 mm) (Table 1). hEHM condensed quickly within the casting molds and were transferred onto static stretch devices (110% of slack length) (Zimmermann et al. Nat Med 12: 452-458 (2006), incorporated herein by reference) on culture day 3. Medium was changed every other day. hEHM culture under stretch was performed for 7 days.
A protocol with reduced xenogenic components (Matrix protocol, Table 1) was established to enable pre-GMP hEHM. Cells were reconstituted in a mixture of pH-neutralized bovine collagen (Devros Medical, 0.4 mg/EHM), concentrated serum-containing culture medium (2× DMEM, 40% fetal calf serum, 200 U/ml penicillin, and […] streptomycin) and cultured in Iscove-Medium with 20% fetal calf serum, 1% non-essential amino acids, 2 mmol/l glutamine, 0.3 mmol/l ascorbic acid, 100 μmol/l β-mercaptoethanol, 100 U/ml penicillin, and 100 μg/ml streptomycin.
To generate fully defined, serum-free EHM cells were reconstituted in a mixture of pH-neutralized bovine collagen (Devros Medical, 0.4 mg/EHM), concentrated serum-free medium medium (2× DMEM, 8% B27, 200 U/ml penicillin, and […] streptomycin) and cultured in Iscove-Medium with full 4% B27, 1% non-essential amino acids, 2 mmol/l glutamine, 0.3 mmol/l ascorbic acid, 20 ng/ml IGF-1, 10 ng/ml FGF2, 10 ng/ml VEGF, 5 ng/ml TGFb1 (culture day 0-3 only), and 100 U/ml penicillin, and 100 μg/ml streptomycin (Serum-free protocol, Table 1). B27 supplement contains vitamins (Biotin, DL Alpha Tocopherol, Acetate DL Alpha-Tocopherol, Vitamin A), proteins and enzymes (BSA, fatty acid free Fraction V, Catalase, Human Recombinant Insulin, Human Transferrin, Superoxide Dismutase), and other cell-supporting components (Corticosterone, D-Galactose, Ethanolamine, Glutathione (reduced), L-Carnitine, Linoleic Acid, Linolenic Acid, Progesterone, Putrescine, Sodium Selenite, and T3 (triodo-I-thyronine). Where indicated full B27 (Invitrogen, A1486701) was compared to B27 without antioxidants (Invitrogen, #10889038) and B27 without insulin (Invitrogen, #0050129SA). B27 supplement was replaced by a custom-made supplement consisting of Albumin, Transferrin, Ethanolamine, Sodium selenite, L-Carnitine HCl, Hydrocortisone, Fatty acid supplement, and Triiodo-L-thyronine (Table 2).
as §1

[4] = tested on: human embryoid body (EB) cultures; assay: Flow cytometry-based screen of media and supplements in 3D human embryoid body (EB) cultures; settings: for cell death (sub-G1 fraction): compared to serum free medium without the factor or to other media, growth factors at above EC50 concentrations; for cardiomyocyte actinin expression (CM maturation): mean actinin fluorescence per cardiomyocyte
Description: EBs cultured in different medium conditions were made into a single cell suspension as described above. Cells were fixed in 70% ice cold ethanol under constant mixing. The cells were stained for sarcomeric actinin (Sigma) to label cardiomyocytes and DAPI to analyze nuclear DNA content and to exclude cell doublets. Cells were run on a LSRII Cytometer (BD). At least 10,000 live cells were analyzed. The following parameters were then analyzed, (1) cell death (percentage of cells in the sub-G1 fraction), (2) cardiomyocyte and non-myocyte percentage (Actinin-positive and negative cells, respectively) (3) Cardiomyocte maturation (mean actinin fluorescence), (4) cardiomyocyte and (5) non-myocyte size (based on sideward scatter area, SSC-A).

[5] = compared to serum free medium without the factor

Molecule: CC(C)Cn1c(=O)n(C)c(=O)c2[nH]cnc21 [IBMX, 3-isobutyl-1-methylxanthine]
- spontaneous beating rate ([1]; IBMX 100 μmol/l in addition to isoprenaline): 1.6±0.1 Hz

Molecule: [Ca+2] [calcium]
- maximal twitch mean force ([2]; at 2.4 mmol/l calcium, n=17): 130±13 μN
- EC50 ([2]; increasing extracellular calcium, n=17): 800 ± 40 µM
- maximal force and isoprenaline response of hEHM in RPMI with added calcium ([3]; RPMI plus 0.8 mM CaCl (final free calcium 1.242 mmol/L) versus RPMI (0.424 mmol/L)): lead to measurable maximal force and better responsiveness to isoprenalin

Molecule: CC(C)NCC(O)c1ccc(O)c(O)c1 (stereo not shown) [isoprenaline, reference compound]
- spontaneous beating frequency ([1]; incubation with isoprenaline, hEHM at 10 days, baseline 0.8±0.05 Hz at 37° C.): 1.2±0.1 Hz
- relaxation time ([2]; 1 μmol/l isoprenaline at 0.4 mmol/l extracellular calcium, n=12): 113 ± 2.3 ms
- increase in force of contraction ([2]; 1 μmol/l isoprenaline at sub-EC50 extracellular calcium (0.4 mmol/l), n=12): 47±12%

Molecule: FGF-2: peptide growth factor (Peprotech, AF-100-18B)
- force-generation of hEHM [3]: able to enhance force-generation
- non-myocyte growth [4, 5]: supported non-myocyte growth
- cardiomyocyte cell size ([4]; sideward scatter area): increased cardiomyocyte cell size

Molecule: IGF-1: peptide growth factor (Peprotech, AF-100-11)
- cell death (sub-G1 fraction) [4]: appeared to protect from cell death

Molecule: Neuregulin-1
- cell death (sub-G1 fraction) [4]: caused substantial cell death

Molecule: TGFβ1: peptide growth factor (Peprotech, 100-21)
- formation of functional EHM ([3]; addition to serum-free medium from day 0 to 3 (5 ng/ml)): essential
- formation of functional EHM, prolonged treatment ([3]; prolonged treatment (culture day 0-10) versus day 0-3): did not yield an additional benefit
- cardiomyocyte actinin expression (CM maturation) [4]: enhanced individual cardiomyocyte actinin expression

Molecule: VEGF
- force-generation of hEHM [3]: able to enhance force-generation
- cardiomyocyte actinin expression (CM maturation) [4]: enhanced individual cardiomyocyte actinin expression

Molecule: fibronectin
- hEHM formation and function by matrix component [3]: did not yield additional benefit

Molecule: laminin
- hEHM formation and function by matrix component [3]: did not yield additional benefit

B1: PDGF-BB: peptide growth factor (protein, UniProt P01127 82-190, looked up)
Platelet-derived growth …: SLGSLTIAEPAMIAECKTRTEVFEISRRLIDRTNANFLVWPPCVEVQRCSGCCNNRNVQCRPTQVQLRPVQVRKIEIVRKKPIFKKATVTLEDHLACKCETVAAARPVT
- cell death (sub-G1 fraction) [4]: caused substantial cell death

B2: TGFβ2: peptide growth factor (protein, UniProt P61812 303-414, looked up)
Transforming growth factor …: ALDAAYCFRNVQDNCCLRPLYIDFKRDLGWKWIHEPKGYNANFCAGACPYLWSSDTQHSRVLSLYNTINPEASASPCCVSQDLEPLTILYYIGKTPKIEQLSNMIVKSCKCS
modifications: Transforming growth factor beta-2
- overall effect in growth factor screen [4, 5]: had no beneficial effect

B3: CT-1: peptide growth factor (Cardiotrophin-1) (protein, UniProt Q16619 1-201, looked up)
Cardiotrophin-1: MSRREGSLEDPQTDSSVSLLPHLEAKIRQTHSLAHLLTKYAEQLLQEYVQLQGDPFGLPSFSPPRLPVAGLSAPAPSHAGLPVHERLRLDAAALAALPPLLDAVCRRQAELNPRAPRLLRRLEDAARQARALGAAVEALLAALGAANRGPRAEPPAATASAASATGVFPAKVLGLRVCGLYREWLSRTEGDLGQLLPGGSA
- cell death (sub-G1 fraction) [4]: caused substantial cell death
